Results on two compounds are retold here after patent US10124012B2, “Method for treatment of hyperglycemia and hyperlipidemia” (priority 2016, dated 2018).

What all share (assay type): in vivo, C57BL/6J mice
Experiment [1] deals with high-fat diet-fed C57BL/6J mouse. Kind of experiment: Blood glucose levels and biochemical parameters in HFD-fed mice. The conditions noted are these: for blood glucose levels: fasting, week 12, oral gavage once daily 4 weeks; for blood glucose levels / blood adiponectin levels / circulating free fatty acid (FFA) levels / circulating total cholesterol (TC) levels / circulating triglycerides (TG) levels / levels of blood insulin / levels of blood leptin: AnK 10, 20, 40, Feno 250, Metf 300 mg/kg/day; for blood adiponectin levels / circulating free fatty acid (FFA) levels / circulating total cholesterol (TC) levels / circulating triglycerides (TG) levels / levels of blood insulin / levels of blood leptin: oral gavage once daily 4 weeks. As to the method:
Animal studies were performed and approved under the guidelines of the Institutional Animal Care and Use Committee in Taiwan (12 Mar. 2015). […] After acclimatization for one week, all of the mice were randomly assigned into a control (CON) group and a high-fat diet (HFD) group. For the following 12 weeks, the CON group (n=9) received a control diet or a low-fat diet (Diet 12450B, Research Diets, Inc., New Brunswick, N.J., USA), while the HFD group (n=54) received a high-fat diet (Diet 12451, Research Diets, New Brunswick, N.J., USA). […] After HFD feeding for 8 weeks, the HFD group was randomly subdivided into six groups (n=9 per group) receiving different treatments and fed on HFD. […] The HF+AnK1, HF+AnK2, and HF+AnK3 groups are collectively termed AnK-treated HFD groups in the following examples. The CON mice were administered vehicle. All treatments were administered via oral gavage once daily. After administration for 4 weeks, all mice were fasted 12 hours, and blood was collected from the retro-orbital sinus under ether anesthesia. At the end of the experiment, the mice were sacrificed via carbon dioxide inhalation. Liver, adipose tissue, and skeletal muscle were collected and immediately stored at −80° C. for target gene analysis. A portion of the blood samples obtained from the retro-orbital sinus of fasted mice were immediately used to measure blood glucose levels using Sidekick glucose analyzer (YSI 1500, YSI Incorporated, Yellow Springs, USA) according to the glucose oxidase method. Heparin (30 units/mL, Sigma) was added into other portions of the blood samples. Plasma samples for the following analysis were prepared from these blood samples via centrifugation at 1600 g for 15 minutes at 4° C., followed by plasma separation within 30 minutes. Blood levels of triglycerides (TG), total cholesterol (TC), and free fatty acids (FFA) were determined using commercial assay kits in accordance with manufacturer's directions (Triglycerides-E test, Cholesterol-E test and FFA-C test, Wako Pure Chemical, Osaka, Japan). Blood levels of insulin, leptin, and adiponectin were measured by enzyme-linked immunosorbent assay (mouse insulin ELISA kit, Mercodia, Uppsala, Sweden; mouse leptin ELISA kit, Morinaga, Yokohama, Japan; mouse adiponectin ELISA kit, Crystal Chem International, Downers Grove, Ill., USA).

Another experiment relates to PPARα. Kind of experiment: Liver mRNA by semi-quantitative RT-PCR: PPARα. To be noted: HFD-fed mice, oral gavage once daily 4 weeks, AnK 10, 20, 40, Feno 250, Metf 300 mg/kg/day, vs HF group. The source says: The 4-week old male C57BL/6J mice (total amount n=63) were obtained from the National Laboratory Animal Center (Taipei, Taiwan). After acclimatization for one week, all of the mice were randomly assigned into a control (CON) group and a high-fat diet (HFD) group. […] After HFD feeding for 8 weeks, the HFD group was randomly subdivided into six groups (n=9 per group) receiving different treatments and fed on HFD. […] The HF+AnK1, HF+AnK2, and HF+AnK3 groups are collectively termed AnK-treated HFD groups in the following examples. The CON mice were administered vehicle. All treatments were administered via oral gavage once daily. After administration for 4 weeks, all mice were fasted 12 hours, and blood was collected from the retro-orbital sinus under ether anesthesia. […]
Total RNA from liver tissue of mice was isolated with a Trizol Reagent (Molecular Research Center, Inc., Cincinnati, Ohio, USA) according to the manufacturer's instructions. The integrity of the extracted total RNA was examined by 2% agarose gel electrophoresis, and the RNA concentration was determined by the ultraviolet (UV) light absorbency at 260 nm and 280 nm (Spectrophotometer U-2800A, Hitachi). […]
Levels of mRNA of target genes were quantified by semi-quantitative reverse transcription polymerase chain reaction (RT-PCR). […] PCR products were analyzed by 2% agarose gel and stained with ethidium bromide.

The next experiment relates to membrane GLUT4. Kind of experiment: Western blotting of skeletal muscular membrane GLUT4 in HFD-fed mice. To be noted: skeletal muscle, AnK 10, 20, 40, Feno 250, Metf 300 mg/kg/day, as compared with the HF group. From the text:
(§1) The 4-week old male C57BL/6J mice (total amount n=63) were obtained from the National Laboratory Animal Center (Taipei, Taiwan). After acclimatization for one week, all of the mice were randomly assigned into a control (CON) group and a high-fat diet (HFD) group. […] After HFD feeding for 8 weeks, the HFD group was randomly subdivided into six groups (n=9 per group) receiving different treatments and fed on HFD. […] The HF+AnK1, HF+AnK2, and HF+AnK3 groups are collectively termed AnK-treated HFD groups in the following examples. The CON mice were administered vehicle. All treatments were administered via oral gavage once daily. After administration for 4 weeks, all mice were fasted 12 hours, and blood was collected from the retro-orbital sinus under ether anesthesia. At the end of the experiment, the mice were sacrificed via carbon dioxide inhalation. Liver, adipose tissue, and skeletal muscle were collected and immediately stored at −80° C. for target gene analysis.
About 0.1 g of liver tissue, skeletal muscle, or adipose tissue was used for the homogenate samples. Samples were powdered under liquid nitrogen and homogenized for 20 seconds in 500 μL buffer containing 20 mM Tris-HCl (pH 7.4 at 4° C.), 2% SDS, 5 mM EDTA, 5 mM EGTA, 1 mM dithiothreitol (DTT), 100 mM NaF, 2 mM sodium vanadate, 0.5 mM phenylmethylsulfonyl fluoride, 10 μg/mL leupeptin, and 10 μL/mL pepstatin. The total membrane fraction was used for measurement. The protein concentration in supernatant was determined with a BCA protein assay kit (Thermo Scientific, Rockford, Ill., USA). […] The membrane was blocked with 5% slim milk in Tris-buffered saline (TBS)(Amersham BioSciences, Uppsala, Sweden) containing 0.05% Tween-20 (Bio Rad, CA, USA) and incubated overnight at 4° C. with antibodies at 1:200 dilution. […] Immunoreactive bands were detected with ECL reagent kit (GE Healthcare BioSciences, Buckinghamshire, UK). The intensity of Western blot signals was analyzed using AlphaEase FC software (Alpha Innotech Corporation, Randburg, South Africa). […]
For orientation: In western blotting, separated proteins are transferred to a membrane and probed.

Experiment [2] deals with phospho-Akt (Ser^473)/total-Akt. Kind of experiment: Western blotting of phospho-Akt/total-Akt in skeletal muscle and liver. The conditions noted are these: HFD-induced reduction, AnK 10, 20, 40, Feno 250, Metf 300 mg/kg/day, vs HF group.
Description: as §1
About 0.1 g of liver tissue, skeletal muscle, or adipose tissue was used for the homogenate samples. Samples were powdered under liquid nitrogen and homogenized for 20 seconds in 500 μL buffer containing 20 mM Tris-HCl (pH 7.4 at 4° C.), 2% SDS, 5 mM EDTA, 5 mM EGTA, 1 mM dithiothreitol (DTT), 100 mM NaF, 2 mM sodium vanadate, 0.5 mM phenylmethylsulfonyl fluoride, 10 μg/mL leupeptin, and 10 μL/mL pepstatin. The total membrane fraction was used for measurement. The protein concentration in supernatant was determined with a BCA protein assay kit (Thermo Scientific, Rockford, Ill., USA). […] The membrane was blocked with 5% slim milk in Tris-buffered saline (TBS)(Amersham BioSciences, Uppsala, Sweden) containing 0.05% Tween-20 (Bio Rad, CA, USA) and incubated overnight at 4° C. with antibodies at 1:200 dilution. Subsequently, the membrane was washed three times with TBS containing 0.05% Tween-20 and incubated with secondary antibody anti-rabbit (1:1000)(Jackson ImmunoResearch Laboratories, Inc., PA, USA) for 1 hour. Immunoreactive bands were detected with ECL reagent kit (GE Healthcare BioSciences, Buckinghamshire, UK). The intensity of Western blot signals was analyzed using AlphaEase FC software (Alpha Innotech Corporation, Randburg, South Africa). The structural protein GAPDH in the samples was used as the loading control.

Molecules are shown by their SMILES.

On to `C=C(CC[C@@H](C)[C@H]1CC[C@H]2C3=C(C(=O)C[C@]12C)[C@@]1(C)CC[C@@H](O)[C@](C)(O)[C@@H]1C[C@@H]3O)C(C)C(=O)O` (stereo partly drawn) [AnK, 3α,4β,7β-trihydroxy-4α-methylergosta-8,24(28)-dien-11-on-25S-26-oic acid], for which the “glucose-lowering effect compared with metformin” value in experiment [1] (AnK 40 mg/kg body weight/day vs metformin 300 mg/kg/day) was “comparable to that of metformin”. Further, the “lowering of blood glucose levels” value in experiment [1] (AnK at 10, 20, and 40 mg/kg body weight/day, vs HF group) is given as 26.8-36.0%. The “decrease of circulating TG” value in experiment [1] (AnK treatment (10, 20, 40 mg/kg/day), vs HF group) is 28.5-32.8%. Also, in experiment [1] (AnK treatment vs fenofibrate 250 mg/kg/day), the “TG-lowering effect compared with fenofibrate” value is “comparable to the TG-lowering effect of fenofibrate”. In addition, in experiment [1] (vs HF group), the blood glucose levels entry was “significantly reduced”, the blood adiponectin levels entry was “markedly enhanced”, the “circulating free fatty acid (FFA) levels” value is listed as “decreased” and the “circulating total cholesterol (TC) levels” value was “decreased”. In experiment [1] (vs HF group), the “circulating triglycerides (TG) levels” value is reported as “decreased”, the “levels of blood insulin” value is “effectively reduced” and the “levels of blood leptin” value is “effectively reduced”. The “PPARα mRNA levels” value with PPARα is reported as “increased”. In addition, in the experiment on membrane GLUT4, the “increase of membrane GLUT4 levels” value is reported as 1.52-2.20 fold. For the same compound, in experiment [2] (liver), the “expression levels of phosphor-Akt/total-Akt” value is given as “significantly reversed”. The “expression levels of phosphor-Akt/total-Akt” value in experiment [2] (skeletal muscle) is on record as “significantly reversed”.
With `CN(C)C(=N)N=C(N)N` [Metf, metformin, reference compound], in experiment [1] (vs HF group), the blood glucose levels entry is recorded as “significantly reduced”, the blood adiponectin levels result is given as “markedly enhanced”, the “circulating free fatty acid (FFA) levels” value is “decreased” and the “circulating total cholesterol (TC) levels” value is “decreased”. In experiment [1] (vs HF group), the “circulating triglycerides (TG) levels” value is given as “decreased”, the “levels of blood insulin” value is “effectively reduced” and the “levels of blood leptin” value is “effectively reduced”. In addition, the “PPARα mRNA levels” value in the experiment on PPARα was “increased”. In the experiment with membrane GLUT4, the “increase of membrane GLUT4 levels” value was 1.86 fold. Besides, in experiment [2] (liver), the “expression levels of phosphor-Akt/total-Akt” value was “significantly reversed”. The “expression levels of phosphor-Akt/total-Akt” value in experiment [2] (skeletal muscle) was “significantly reversed”.
